According to PubChem BioAssay (NCI):
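Five compound concentrations were applied to cells in 96-well plates for 48 hours; endpoints were derived by simple linear interpolation of the resulting dose-response curve. GI50 is the concentration that inhibits growth by half. Definition used: TGI = concentration required for complete inhibition of growth.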

Experiments:
Test in all cases: inhibition of tumour cell growth, NCI panel, 48 h
786-0 renal = tested on: 786-0 renal
A498 renal = tested on: A498 renal
ACHN renal = tested on: ACHN renal
CAKI-1 renal = tested on: CAKI-1 renal
CCRF-CEM leukemia = tested on: CCRF-CEM leukemia
COLO 205 colon = tested on: COLO 205 colon
DU-145 prostate = tested on: DU-145 prostate
HCT-116 colon = tested on: HCT-116 colon
HCT-15 colon = tested on: HCT-15 colon
HL-60(TB) leukemia = tested on: HL-60(TB) leukemia
HS 578T breast = tested on: HS 578T breast
HT29 colon = tested on: HT29 colon
IGROV1 ovarian = tested on: IGROV1 ovarian
K-562 leukemia = tested on: K-562 leukemia
M14 melanoma = tested on: M14 melanoma
MALME-3M melanoma = tested on: MALME-3M melanoma
MDA-MB-231 breast = tested on: MDA-MB-231 breast
MDA-MB-435 = tested on: MDA-MB-435
MOLT-4 leukemia = tested on: MOLT-4 leukemia
NCI-H226 lung = tested on: NCI-H226 lung
NCI-H522 lung = tested on: NCI-H522 lung
NCI/ADR-RES ovarian = tested on: NCI/ADR-RES ovarian
OVCAR-3 ovarian = tested on: OVCAR-3 ovarian
OVCAR-4 ovarian = tested on: OVCAR-4 ovarian
OVCAR-5 ovarian = tested on: OVCAR-5 ovarian
PC-3 prostate = tested on: PC-3 prostate
RPMI-8226 leukemia = tested on: RPMI-8226 leukemia
SF-539 CNS = tested on: SF-539 CNS
SK-MEL-2 melanoma = tested on: SK-MEL-2 melanoma
SK-MEL-28 melanoma = tested on: SK-MEL-28 melanoma
SK-MEL-5 melanoma = tested on: SK-MEL-5 melanoma
SK-OV-3 ovarian = tested on: SK-OV-3 ovarian
SN12C renal = tested on: SN12C renal
SNB-19 CNS = tested on: SNB-19 CNS
SNB-75 CNS = tested on: SNB-75 CNS
SR leukemia = tested on: SR leukemia
T-47D breast = tested on: T-47D breast
TK-10 renal = tested on: TK-10 renal
U251 CNS = tested on: U251 CNS
UACC-257 melanoma = tested on: UACC-257 melanoma
UACC-62 melanoma = tested on: UACC-62 melanoma
UO-31 renal = tested on: UO-31 renal

`Cn1cc(-c2cc3nc(-c4c[nH]c5ccc(Cl)cc45)cc(N)n3n2)c2ccccc21` gave a GI50 (786-0 renal) of 1450 nM, a TGI (786-0 renal) of 2830 nM and a GI50 (A498 renal) of 1600 nM. The TGI (A498 renal) was 3.37 µM, the GI50 (ACHN renal) was 1540 nM and the TGI (ACHN renal) was 2870 nM. It also gave a GI50 (CAKI-1 renal) of 1450 nM, a TGI (CAKI-1 renal) of 2910 nM and a GI50 (CCRF-CEM leukemia) of 3.12 µM. The TGI (CCRF-CEM leukemia) was 11.2 µM, the GI50 (COLO 205 colon) was 1800 nM and the TGI (COLO 205 colon) was 3.35 µM. It also gave a GI50 (DU-145 prostate) of 1840 nM, a TGI (DU-145 prostate) of 3.32 µM and a GI50 (HCT-116 colon) of 1620 nM. It also gave a TGI (HCT-116 colon) of 2980 nM, a GI50 (HCT-15 colon) of 1470 nM and a TGI (HCT-15 colon) of 2910 nM. For the same molecule, the GI50 (HL-60(TB) leukemia) was 2020 nM, the TGI (HL-60(TB) leukemia) was 4.75 µM and the GI50 (HS 578T breast) was 1910 nM. It also gave a TGI (HS 578T breast) of 4.8 µM, a GI50 (HT29 colon) of 1560 nM and a TGI (HT29 colon) of 2980 nM. It also gave a GI50 (IGROV1 ovarian) of 1570 nM, a TGI (IGROV1 ovarian) of 3.13 µM and a GI50 (K-562 leukemia) of 2580 nM. The TGI (K-562 leukemia) was 8.07 µM, the GI50 (M14 melanoma) was 1680 nM and the TGI (M14 melanoma) was 3.14 µM. It also gave a GI50 (MALME-3M melanoma) of 1610 nM, a TGI (MALME-3M melanoma) of 2970 nM and a GI50 (MDA-MB-231 breast) of 1790 nM. It also gave a TGI (MDA-MB-231 breast) of 3.23 µM, a GI50 (MDA-MB-435) of 1720 nM and a TGI (MDA-MB-435) of 3.15 µM. The GI50 (MOLT-4 leukemia) was 1620 nM, the TGI (MOLT-4 leukemia) was 4.18 µM and the GI50 (NCI-H226 lung) was 1890 nM. The TGI (NCI-H226 lung) was 5.17 µM, the GI50 (NCI-H522 lung) was 1600 nM and the TGI (NCI-H522 lung) was 3.23 µM. For the same molecule, the GI50 (NCI/ADR-RES ovarian) was 2110 nM, the TGI (NCI/ADR-RES ovarian) was 4.73 µM and the GI50 (OVCAR-3 ovarian) was 2080 nM. For the same molecule, the TGI (OVCAR-3 ovarian) was 4.39 µM, the GI50 (OVCAR-4 ovarian) was 1910 nM and the TGI (OVCAR-4 ovarian) was 4.15 µM. The GI50 (OVCAR-5 ovarian) was 1570 nM, the TGI (OVCAR-5 ovarian) was 3.04 µM and the GI50 (PC-3 prostate) was 1640 nM. It also gave a TGI (PC-3 prostate) of 3.14 µM, a GI50 (RPMI-8226 leukemia) of 2620 nM and a TGI (RPMI-8226 leukemia) of 7.21 µM. It also gave a GI50 (SF-539 CNS) of 1640 nM, a TGI (SF-539 CNS) of 3.06 µM and a GI50 (SK-MEL-2 melanoma) of 1810 nM. For the same molecule, the TGI (SK-MEL-2 melanoma) was 3.54 µM, the GI50 (SK-MEL-28 melanoma) was 1560 nM and the TGI (SK-MEL-28 melanoma) was 2900 nM. For the same molecule, the GI50 (SK-MEL-5 melanoma) was 1670 nM, the TGI (SK-MEL-5 melanoma) was 3.1 µM and the GI50 (SK-OV-3 ovarian) was 1910 nM. The TGI (SK-OV-3 ovarian) was 3.88 µM, the GI50 (SN12C renal) was 1710 nM and the TGI (SN12C renal) was 3.17 µM. The GI50 (SNB-19 CNS) was 1680 nM, the TGI (SNB-19 CNS) was 3.15 µM and the GI50 (SNB-75 CNS) was 1500 nM. The TGI (SNB-75 CNS) was 3.24 µM, the GI50 (SR leukemia) was 1660 nM and the TGI (SR leukemia) was 5.1 µM. It also gave a GI50 (T-47D breast) of 1840 nM, a TGI (T-47D breast) of 4.14 µM and a GI50 (TK-10 renal) of 1260 nM. For the same molecule, the TGI (TK-10 renal) was 2580 nM, the GI50 (U251 CNS) was 1700 nM and the TGI (U251 CNS) was 3.29 µM. The GI50 (UACC-257 melanoma) was 1690 nM, the TGI (UACC-257 melanoma) was 3.23 µM and the GI50 (UACC-62 melanoma) was 1630 nM. It also gave a TGI (UACC-62 melanoma) of 3.06 µM, a GI50 (UO-31 renal) of 1430 nM and a TGI (UO-31 renal) of 2730 nM.
